The results in this text go back to ChEMBL document CHEMBL4765284, “Optimization of 5-substituted thiazolyl ureas and 6-substituted imidazopyridines as potential HIV-1 latency reversing agents” (Eur J Med Chem, 2020).

≈ marks a conversion by molar mass, not a printed value.

Series [1] has as its system Human immunodeficiency virus 1. The series is described as follows: Antiviral activity against HIV-1 infected in FlpIn-HEK293 cells assessed as activation of long terminal repeat driven gene expression incubated for 72 hrs by luciferase based cellular assay. The series is classed as functional, organism-based. Conditions: Human immunodeficiency virus 1, HEK293, 72 h.

The next series concerns Cytomegalovirus. Description: Antiviral activity against CMV infected in FlpIn-HEK293 cells assessed as click beetle green reporter driven gene expression incubated for 72 hrs by luciferase based cellular assay. The format is functional, organism-based. Conditions: HEK293, 72 h.
Series [2] is described as follows: Aqueous solubility of compound at pH 2 by nephelometry. The series is classed as physicochemical.
Series [3] is described as follows: Aqueous solubility of compound at pH 6.5 by nephelometry. The format is physicochemical.
Series [4] can be described thus: Metabolic stability in mouse liver microsomes assessed as half life at 1 uM measured upto 60 mins by LC-MS anlaysis. The series is classed as ADME, Microsome. On the technique in general: Microsomes from liver hold many membrane-bound enzymes, among them those of drug oxidation.
Series [5] in a line: Metabolic stability in mouse liver microsomes assessed as intrinsic clearance at 1 uM measured upto 60 mins by LC-MS anlaysis. The format is ADME, Microsome. The following applies: read-out: CLH.
Series [6] concerns Human immunodeficiency virus 1. The series is described as follows: Antiviral activity against HIV-1 infected in FlpIn-HEK293 cells assessed as maximal activation of long terminal repeat driven gene expression at 0.31 uM incubated for 48 hrs by luciferase based cellular assay relative to control. The series is classed as functional.
Series [7] deals with Human immunodeficiency virus 1. Description: Antiviral activity against HIV-1 infected in J-Lat 10.6 cells assessed as maximal activation of long terminal repeat driven gene expression incubated for 48 hrs by green fluorescent protein based cellular assay. The format is functional, organism-based. The following applies: Human immunodeficiency virus 1, J-Lat 10.6, 48 h.
The subject of series [8] is Human immunodeficiency virus 1. The series is described as follows: Antiviral activity against HIV-1 infected in J-Lat 10.6 cells assessed as maximal activation of long terminal repeat driven gene expression at 0.25 uM incubated for 48 hrs by green fluorescent protein based cellular assay relative to control. The series is classed as functional.
Series [9] is described as follows: Cytotoxicity against human HepG2 cells assessed as growth incubation incubated for 48 hrs by cell titer glo assay. The series is classed as cell-based.
Series [10] is described as follows: Metabolic stability in human liver microsomes assessed as half life at 1 uM measured upto 60 mins by LC-MS anlaysis. The format is ADME, Microsome.
Series [11] is described as follows: Metabolic stability in human liver microsomes assessed as intrinsic clearance at 1 uM measured upto 60 mins by LC-MS analysis. The format is ADME, Microsome. The following applies: read-out: CLH.
In series [12] the test system is Human immunodeficiency virus 1. Description: Antiviral activity against HIV-1 infected in FlpIn-HEK293 cells assessed as maximal activation of long terminal repeat driven gene expression at 5 uM incubated for 48 hrs by luciferase based cellular assay relative to control. The series is classed as functional.
The test system of series [13] is Human immunodeficiency virus 1. The series is described as follows: Antiviral activity against HIV-1 infected in J-Lat 10.6 cells assessed as maximal activation of long terminal repeat driven gene expression at 1 uM incubated for 48 hrs by green fluorescent protein based cellular assay relative to control. The format is functional.
Series [14] concerns Human immunodeficiency virus 1. The series is described as follows: Antiviral activity against HIV-1 infected in FlpIn-HEK293 cells assessed as maximal activation of long terminal repeat driven gene expression at 0.63 uM incubated for 48 hrs by luciferase based cellular assay relative to control. The series is classed as functional.
The test system of series [15] is Human immunodeficiency virus 1. Description: Antiviral activity against HIV-1 infected in J-Lat 10.6 cells assessed as maximal activation of long terminal repeat driven gene expression at 2 uM incubated for 48 hrs by green fluorescent protein based cellular assay relative to control. The series is classed as functional.
Series [16] relates to Human immunodeficiency virus 1. The series is described as follows: Antiviral activity against HIV-1 infected in FlpIn-HEK293 cells assessed as maximal activation of long terminal repeat driven gene expression at 0.13 uM incubated for 48 hrs by luciferase based cellular assay relative to control. The format is functional.
Series [17] deals with Human immunodeficiency virus 1. Description: Antiviral activity against HIV-1 infected in J-Lat 10.6 cells assessed as maximal activation of long terminal repeat driven gene expression at 0.13 uM incubated for 48 hrs by green fluorescent protein based cellular assay relative to control. The format is functional.
Series [18] deals with Cyclin-dependent kinase 9 (Homo sapiens) (UniProt P50750). The series is described as follows: Inhibition of CDK9 (unknown origin) at 0.5 uM.
Sequence of Cyclin-dependent kinase 9 (Homo sapiens) (P50750 whole entry): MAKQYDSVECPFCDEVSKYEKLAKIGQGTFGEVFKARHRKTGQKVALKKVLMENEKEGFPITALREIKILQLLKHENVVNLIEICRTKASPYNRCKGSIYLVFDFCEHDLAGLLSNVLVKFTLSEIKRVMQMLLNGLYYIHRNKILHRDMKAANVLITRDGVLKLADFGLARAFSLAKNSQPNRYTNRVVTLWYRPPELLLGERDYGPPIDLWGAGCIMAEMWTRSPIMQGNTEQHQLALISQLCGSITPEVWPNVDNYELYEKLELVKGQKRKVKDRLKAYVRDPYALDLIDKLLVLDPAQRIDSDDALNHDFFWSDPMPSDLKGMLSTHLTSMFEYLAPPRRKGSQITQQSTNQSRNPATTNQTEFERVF
The next series deals with T1, Cyclin-K (Homo sapiens) (UniProt O75909).
T1 sequence (whole entry): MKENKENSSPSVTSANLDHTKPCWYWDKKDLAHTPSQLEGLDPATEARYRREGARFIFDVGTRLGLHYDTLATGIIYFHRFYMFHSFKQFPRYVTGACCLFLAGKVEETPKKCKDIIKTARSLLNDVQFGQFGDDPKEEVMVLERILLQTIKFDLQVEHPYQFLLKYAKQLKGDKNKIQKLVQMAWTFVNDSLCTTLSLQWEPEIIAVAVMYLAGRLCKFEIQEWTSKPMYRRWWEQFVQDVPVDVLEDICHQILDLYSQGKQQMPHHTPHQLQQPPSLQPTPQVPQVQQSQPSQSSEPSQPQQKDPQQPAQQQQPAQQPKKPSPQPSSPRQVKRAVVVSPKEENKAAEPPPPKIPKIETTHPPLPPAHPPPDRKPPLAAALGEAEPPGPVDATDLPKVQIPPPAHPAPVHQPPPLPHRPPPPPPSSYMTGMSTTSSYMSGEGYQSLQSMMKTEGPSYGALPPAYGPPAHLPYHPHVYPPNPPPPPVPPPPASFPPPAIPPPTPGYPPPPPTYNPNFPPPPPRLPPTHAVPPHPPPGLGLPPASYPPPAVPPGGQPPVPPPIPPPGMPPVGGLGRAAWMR
Description: Inhibition of cyclin K (unknown origin) at 0.5 uM.

In another series the target is Cyclin-T1 (Homo sapiens) (UniProt O60563). The series is described as follows: Inhibition of cyclin T1 (unknown origin) at 0.5 uM.
Sequence of Cyclin-T1 (Homo sapiens) (O60563 whole entry): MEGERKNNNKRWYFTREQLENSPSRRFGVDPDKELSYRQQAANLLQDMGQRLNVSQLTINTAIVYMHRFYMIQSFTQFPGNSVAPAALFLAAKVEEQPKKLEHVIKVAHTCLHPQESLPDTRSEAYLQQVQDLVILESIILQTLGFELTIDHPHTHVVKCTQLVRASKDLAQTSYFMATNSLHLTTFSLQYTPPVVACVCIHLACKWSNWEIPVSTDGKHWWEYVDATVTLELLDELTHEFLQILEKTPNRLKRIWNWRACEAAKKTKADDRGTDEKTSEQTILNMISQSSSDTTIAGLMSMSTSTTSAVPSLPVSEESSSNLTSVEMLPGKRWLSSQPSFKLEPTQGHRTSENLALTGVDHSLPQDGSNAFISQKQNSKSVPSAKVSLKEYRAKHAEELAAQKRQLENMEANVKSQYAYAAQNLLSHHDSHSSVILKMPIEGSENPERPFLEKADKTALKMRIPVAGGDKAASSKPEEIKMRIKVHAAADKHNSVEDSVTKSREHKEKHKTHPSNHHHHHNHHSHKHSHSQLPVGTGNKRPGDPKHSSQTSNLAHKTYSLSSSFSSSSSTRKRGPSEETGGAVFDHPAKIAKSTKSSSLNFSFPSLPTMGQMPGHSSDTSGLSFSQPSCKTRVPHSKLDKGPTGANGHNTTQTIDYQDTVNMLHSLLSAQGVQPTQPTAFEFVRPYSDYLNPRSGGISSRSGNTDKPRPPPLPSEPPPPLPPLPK
The next series concerns the target Cyclin-T2 (Homo sapiens) (UniProt O60583). The series is described as follows: Inhibition of cyclin T2 (unknown origin) at 0.5 uM.
The test system of series [19] is Human immunodeficiency virus 1. Description: Antiviral activity against HIV-1 infected in FlpIn-HEK293 cells assessed as maximal activation of long terminal repeat driven gene expression at 0.16 uM incubated for 48 hrs by luciferase based cellular assay relative to control. The format is functional.
In series [20] the test system is Human immunodeficiency virus 1. The series is described as follows: Antiviral activity against HIV-1 infected in FlpIn-HEK293 cells assessed as maximal activation of long terminal repeat driven gene expression at 0.09 uM incubated for 48 hrs by luciferase based cellular assay relative to control. The series is classed as functional.
The subject of series [21] is Human immunodeficiency virus 1. The series is described as follows: Antiviral activity against HIV-1 infected in J-Lat 10.6 cells assessed as maximal activation of long terminal repeat driven gene expression at 0.06 uM incubated for 48 hrs by green fluorescent protein based cellular assay relative to control. The format is functional.
Series [22] relates to Human immunodeficiency virus 1. Description: Antiviral activity against HIV-1 infected in FlpIn-HEK293 cells assessed as maximal activation of long terminal repeat driven gene expression at 1.3 uM incubated for 48 hrs by luciferase based cellular assay relative to control. The format is functional.
Series [23] concerns Human immunodeficiency virus 1. The series is described as follows: Antiviral activity against HIV-1 infected in J-Lat 10.6 cells assessed as maximal activation of long terminal repeat driven gene expression at 20 uM incubated for 48 hrs by green fluorescent protein based cellular assay relative to control. The format is functional.

Sequence of Cyclin-T2 (Homo sapiens) (O60583 whole entry): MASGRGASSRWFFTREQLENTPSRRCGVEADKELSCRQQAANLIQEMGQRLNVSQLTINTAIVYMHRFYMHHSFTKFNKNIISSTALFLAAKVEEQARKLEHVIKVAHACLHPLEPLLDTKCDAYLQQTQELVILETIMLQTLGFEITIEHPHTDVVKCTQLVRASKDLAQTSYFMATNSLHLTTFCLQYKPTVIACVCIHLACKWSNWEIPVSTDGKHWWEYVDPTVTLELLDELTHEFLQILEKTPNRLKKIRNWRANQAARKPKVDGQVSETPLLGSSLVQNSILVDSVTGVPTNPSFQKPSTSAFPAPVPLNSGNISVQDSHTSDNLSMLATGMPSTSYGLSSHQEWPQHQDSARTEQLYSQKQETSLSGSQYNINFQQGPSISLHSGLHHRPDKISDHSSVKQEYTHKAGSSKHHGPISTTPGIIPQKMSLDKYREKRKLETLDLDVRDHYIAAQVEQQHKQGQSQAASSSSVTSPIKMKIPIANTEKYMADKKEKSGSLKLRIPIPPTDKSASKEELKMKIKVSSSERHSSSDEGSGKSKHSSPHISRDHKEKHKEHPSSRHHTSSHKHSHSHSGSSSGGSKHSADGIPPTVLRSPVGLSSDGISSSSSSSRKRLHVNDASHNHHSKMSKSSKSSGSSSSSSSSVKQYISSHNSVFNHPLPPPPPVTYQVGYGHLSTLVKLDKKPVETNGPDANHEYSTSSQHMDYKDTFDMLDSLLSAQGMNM

Regarding `N#Cc1cccc(N2CCN(C(=O)Nc3ncc(Cl)s3)CC2)c1`, the EC50 (in general, the concentration giving half of the maximal effect) in [1] stood at 610 nM; with Cytomegalovirus, 500 nM; in series [7], 480 nM. Moreover, the kinetic solubility in series [2] and in series [3] was < 1.6 µM each time. Also, in [4], the half-life (commonly the time needed for the level to fall by half in the phase considered) at 1 µM turned out to be 46 min. For the same molecule, the microsomal CLint at 1 µM in series [5] was 38 µL/min/mg. In addition, the figures for the “%max” value in series [6] and in series [8] were 22% and 28%, respectively. Besides, in series [9], the 50% cytotoxic concentration (CC50) (in general, the concentration giving 50% cytotoxicity) at 48 h was found to be 50 nM.

On to `N#Cc1cnc(NC(=O)N2CCN(c3ccc(Cl)c(Cl)c3)CC2)s1`, for which the 50% effective concentration (EC50) was found to be 350 nM in series [1], 4400 nM in the series with Cytomegalovirus and 1600 nM in series [7]. For the same molecule, the kinetic solubility in [2] and in series [3] was < 1.6 µM throughout. Moreover, the half-life at 1 µM in series [10] was 151 min; in [4] it was 117 min. Moreover, the results for the microsomal CLint at 1 µM in [11] and in series [5] were 11 µL/min/mg and 15 µL/min/mg, respectively. Moreover, the “%max” value is listed as 87% in [12] and 30% in series [13]. Further, in series [9], the half-maximal cytotoxic concentration (CC50) at 48 h was 410 nM.

Regarding `Cc1cc(NC2CCN(C(=O)Nc3ncc(Cl)s3)C2)ccc1Cl` (stereo unspecified), the EC50 in series [1] was found to be 790 nM; in the series on Cytomegalovirus, 1800 nM; in series [7], 3000 nM. Moreover, the kinetic solubility – broadly, the concentration staying in solution when a stock, usually in DMSO, is diluted into the medium – in series [2] is 6.3 µM (≈ 2.34 µg/mL); in series [3], 1.6 µM (≈ 0.594 µg/mL). Besides, the half-life at 1 µM in series [4] was found to be 11 min. In series [5], the microsomal CLint at 1 µM was determined as 151 µL/min/mg. In addition, the figures for the “%max” value in series [14] and in series [15] were 39% and 20%, respectively. Further, in series [9], the CC50 at 48 h was 680 nM.

For `O=C(Nc1ncc(Cl)s1)N1CCN(c2cnc(Cl)c(Cl)c2)CC1`, the EC50 in series [1] worked out at 80 nM; in the series on Cytomegalovirus it was 70 nM; in series [7], 290 nM. Moreover, the solubility (kinetic) in series [2] and in series [3] was < 1.6 µM in each case. Also, the half-life at 1 µM was 70 min in series [10] and 55 min in series [4]. For the same molecule, the microsomal CLint at 1 µM in series [11] is 25 µL/min/mg; in series [5] it was 32 µL/min/mg. Moreover, the figures for the “%max” value in series [16] and in series [17] were 65% and 26%, respectively. For the same molecule, the CC50 at 48 h in series [9] was 40 nM. Besides, the inhibition (in series [18]; at Cyclin-K (Homo sapiens); against Cyclin-T1 (Homo sapiens); at Cyclin-T2 (Homo sapiens)) was 60% each time.

In the case of `N#Cc1cnc(NC(=O)N2CCN(c3cnc(Cl)c(Cl)c3)CC2)s1`, the figures for the 50% effective concentration (EC50) (in series [1]; in the series on Cytomegalovirus; in [7]) were 390 nM, 150 nM and 1100 nM, respectively. Moreover, the kinetic solubility in series [2] and in series [3] was < 1.6 µM each time. In series [4], the half-life at 1 µM was 80 min. For the same molecule, the microsomal CLint at 1 µM in series [5] turned out to be 22 µL/min/mg. Moreover, the “%max” value in series [19] came out at 25%; in series [8] it was 28%. Also, in series [9], the half-maximal cytotoxic concentration (CC50) at 48 h was found to be 120 nM.

For the molecule `Clc1cnc2[nH]c(N3CCN(c4cnc(Cl)c(Cl)c4)CC3)nc2c1`, the 50% effective concentration (EC50) stood at 80 nM in [1], 27000 nM in the series with Cytomegalovirus and 24000 nM in series [7]. Moreover, the solubility (kinetic) came to 25 µM (≈ 9.59 µg/mL) in series [2] and 1.6 µM (≈ 0.614 µg/mL) in [3]. In addition, the half-life at 1 µM in series [4] is 13 min. The microsomal CLint at 1 µM in series [5] is 132 µL/min/mg. Also, the “%max” value was 57% in [20] and 28% in [21]. Also, the CC50 at 48 h in series [9] came to 40 nM.

For `Clc1cnc2[nH]c(CCCOc3cnc(Cl)c(Cl)c3)nc2c1`, the EC50 is 6400 nM in series [1], 2400 nM in the series on Cytomegalovirus and > 4000 nM in [7]. For the same molecule, the kinetic solubility in series [2] was found to be 12.5 µM (≈ 4.47 µg/mL); in series [3], 1.6 µM (≈ 0.572 µg/mL). For the same molecule, in series [4], the half-life at 1 µM is 14 min. Moreover, the microsomal CLint at 1 µM in series [5] came out at 122 µL/min/mg. For the same molecule, the “%max” value turned out to be 26% in series [16] and 11% in series [15]. The CC50 at 48 h in [9] was determined as 1900 nM.

Regarding `Cc1cc(OCCCC(=O)Nc2ncc(Cl)s2)ccc1Cl`, the “%max” value in series [22] was found to be 39%; in series [23], 15%. In addition, the EC50 in [7] came out at 29000 nM.
